Source: patent US20210330611A1, “THERAPY FOR NEUROLOGICAL DISEASES/DISORDERS” (priority 2020, published 2021)
Structures can show the parent of a compound that is named as a salt.

How the values were obtained:
[1] = test system: fibrin- and LPS-induced microglia activation; experiment: cells; format: cell-based, rat; conditions: quadrant by fibrin and LPS inhibition in HTS of 1907 compounds
[2] = test system: fibrin-induced microglia activation; experiment: Image-based assay of fibrin-induced microglia activation (HTS and dose response); format: cell-based, rat; conditions: primary microglia HTS, fibrin stimulation, increased cell size (>800 μm^2) as marker of activation; for inhibition at 10 µM: Rattus norvegicus, Microglia, read-out: Fibrin % inhibition
primary rat microglia [3] = experiment: Cell toxicity (dead cells, size <150 μm2) in coated fibrin (cFib) assay; conditions: primary microglia HTS, fibrin stimulation; decreased size (<150 μm^2) as marker of toxicity;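 note: share of dead cells sized under 150 µm2 at 10 µM in fibrin-stimulated microglia HTS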
[4] = test system: LPS-induced microglia activation; experiment: Image-based assay of LPS-induced microglia activation (HTS and dose response); format: cell-based, rat; conditions: primary microglia HTS, LPS stimulation, increased cell size (>800 μm^2) as marker of activation; for inhibition at 10 µM: Rattus norvegicus, Microglia, 48 h, read-out: LPS % inhibition
primary rat microglia [5] = experiment: Cell toxicity (dead cells, size <150 μm2) in LPS assay; conditions: primary microglia HTS, LPS stimulation; decreased size (<150 μm^2) as marker of toxicity

SMILES | Quadrant (FIG. 5b) [1] | Fibrin % inhibition [2] | Fibrin % cell toxicity (primary rat microglia [3]) | LPS % inhibition [4] | LPS % cell toxicity (primary rat microglia [5]) | inhibition at 10 µM [2] | inhibition at 10 µM [4]
CCN(CC)CCNC(=O)COc1ccc(OC)cc1 [Mefexamide, Mefexamide Hydrochloride] | Q4 | −13% | 0% | −2% | 0% |  | 
COc1ccc2[nH]cc(CCNC(C)=O)c2c1 [Melatonin] | Q4 |  | 1% |  | 0% | 4% | -3%
Cc1cnc(NC(=O)C2=C(O)c3ccccc3S(=O)(=O)N2C)s1 [Meloxicam] | Q4 |  | 1% |  | 0% | -1% | 20%
CC12CC3CC(C)(C1)CC(N)(C3)C2 [Memantine] | Q4 |  | 0% |  | 0% | 2% | 5%
CC1=CC(=O)c2ccccc2C1=O [Menadione] | Q2 |  | 87% |  | 62% | 113% | 123%
C[N+]1(C)CCCC(OC(=O)C(O)(c2ccccc2)c2ccccc2)C1 (centres unmarked) [Mepenzolate] | Q4 |  | 1% |  | 1% | 45% | 34%
[O-][n+]1cccc(CO)c1 [Mepiroxol] | Q4 | −6% | 1% | 11% | 0% |  | 
Cc1cccc(C)c1NC(=O)C1CCCCN1C (centres unmarked) [Mepivacaine] | Q4 |  | 0% |  | 0% | 7% | 10%
CCCNC(C)(C)COC(=O)c1ccccc1 [Meprylcaine Hydrochloride] | Q4 |  | 0% |  | 0% | -10% | 7%
Nc1ccc(O)c(C(=O)O)c1 [Mesalazine] | Q4 |  | 1% |  | 0% | 9% | 19%
O=S(=O)(O)CCS [Mesna] | Q4 |  | 1% |  | 0% | 18% | 5%
CC(=O)Oc1cccc(C)c1 [Meta-cresyl Acetate] | Q4 |  | 1% |  | 0% | -7% | -3%
Cc1cc(C)cc(OCC2CNC(=O)O2)c1 (centres unmarked) [Metaxalone] | Q4 |  | 1% |  | 0% | 13% | 6%
CN1C[C@H](CNC(=O)OCc2ccccc2)C[C@@H]2c3cccc4c3c(cn4C)C[C@H]21 [Metergoline] | Q4 |  | 1% |  | 0% | -12% | 16%
CC(=O)OC(C)C[N+](C)(C)C (centres unmarked) [Methacholine] | Q4 |  | 1% |  | 0% | 2% | 9%
C=C1c2cccc(O)c2C(=O)C2=C(O)[C@]3(O)C(=O)C(C(N)=O)=C(O)[C@@H](N(C)C)[C@@H]3[C@@H](O)[C@H]12 [Methacycline] | Q4 |  | 0% |  | 0% | -10% | 11%
COc1ccccc1OCC(O)COC(N)=O (centres unmarked) [Methocarbamol] | Q4 |  | 0% |  | 0% | 4% | 10%
COc1ccc(OC)c(C(O)C(C)N)c1 (centres unmarked) [Methoxamine] | Q4 |  | 1% |  | 0% | 3% | 1%
CN1C(=O)CC(C)(c2ccccc2)C1=O (centres unmarked) [Methsuximide] | Q4 |  | 0% |  | 0% | -39% | 19%
